Data published in patent US11878995B2, “Oxysterols and methods of use thereof” (SAGE THERAPEUTICS, INC., priority 2016, dated 2024).

Molecular target: T1, GlunN1/GluN2A glutamate receptors (Homo sapiens, UniProt Q05586+Q12879)
T1 construct: expressed in transfected cells
Assay: Whole-cell patch clamp of mammalian cells (Ionworks Barracuda), NMDA potentiation
Type: cell-based
Settings: 3 μM compound; HEK293 cells expressing human GRIN1/GRIN2A; co-application with EC20 L-glutamate and 30 μM glycine
Experimental: NMDA potentiation was assessed using either whole cell patch clamp of mammalian cells which expressed NMDA receptors.
Whole-Cell Patch Clamp of Mammalian Cells (Ionworks Barracuda (IWB))
The whole-cell patch-clamp technique was used to investigate the effects of compounds on GlunN1/GluN2A glutamate receptors expressed in mammalian cells.
HEK293 cells were transformed with adenovirus 5 DNA and transfected with cDNA encoding the human GRIN1/GRIN2A genes. Stable transfectants were selected using G418 and Zeocin-resistance genes incorporated into the expression plasmid and selection pressure maintained with G418 and Zeocin in the medium. Cells were cultured in Dulbecco's Modified Eagle Medium/Nutrient Mixture (D-MEM/F-12) supplemented with 10% fetal bovine serum, 100 μg/ml penicillin G sodium, 100 μg/ml streptomycin sulphate, 100 μg/ml Zeocin, 5 μg/ml blasticidin and 500 μg/ml G418.
Test article effects were evaluated in 8-point concentration-response format (4 replicate wells/concentration). […]
• a) Intracellular solution (mM): 50 mM CsCl, 90 mM CsF, 2 mM MgCl2, 5 mM EGTA, 10 mM HEPES. […] Cell suspension will be pipetted into the wells (9 μL per well) of the PPC planar electrode. • b) Whole-cell recording configuration will be established via patch perforation with membrane currents recorded by on-board patch clamp amplifiers. • c) Two recordings (scans) will be performed. […]

T1 sequence (Q12879 23-1464, other chains not shown): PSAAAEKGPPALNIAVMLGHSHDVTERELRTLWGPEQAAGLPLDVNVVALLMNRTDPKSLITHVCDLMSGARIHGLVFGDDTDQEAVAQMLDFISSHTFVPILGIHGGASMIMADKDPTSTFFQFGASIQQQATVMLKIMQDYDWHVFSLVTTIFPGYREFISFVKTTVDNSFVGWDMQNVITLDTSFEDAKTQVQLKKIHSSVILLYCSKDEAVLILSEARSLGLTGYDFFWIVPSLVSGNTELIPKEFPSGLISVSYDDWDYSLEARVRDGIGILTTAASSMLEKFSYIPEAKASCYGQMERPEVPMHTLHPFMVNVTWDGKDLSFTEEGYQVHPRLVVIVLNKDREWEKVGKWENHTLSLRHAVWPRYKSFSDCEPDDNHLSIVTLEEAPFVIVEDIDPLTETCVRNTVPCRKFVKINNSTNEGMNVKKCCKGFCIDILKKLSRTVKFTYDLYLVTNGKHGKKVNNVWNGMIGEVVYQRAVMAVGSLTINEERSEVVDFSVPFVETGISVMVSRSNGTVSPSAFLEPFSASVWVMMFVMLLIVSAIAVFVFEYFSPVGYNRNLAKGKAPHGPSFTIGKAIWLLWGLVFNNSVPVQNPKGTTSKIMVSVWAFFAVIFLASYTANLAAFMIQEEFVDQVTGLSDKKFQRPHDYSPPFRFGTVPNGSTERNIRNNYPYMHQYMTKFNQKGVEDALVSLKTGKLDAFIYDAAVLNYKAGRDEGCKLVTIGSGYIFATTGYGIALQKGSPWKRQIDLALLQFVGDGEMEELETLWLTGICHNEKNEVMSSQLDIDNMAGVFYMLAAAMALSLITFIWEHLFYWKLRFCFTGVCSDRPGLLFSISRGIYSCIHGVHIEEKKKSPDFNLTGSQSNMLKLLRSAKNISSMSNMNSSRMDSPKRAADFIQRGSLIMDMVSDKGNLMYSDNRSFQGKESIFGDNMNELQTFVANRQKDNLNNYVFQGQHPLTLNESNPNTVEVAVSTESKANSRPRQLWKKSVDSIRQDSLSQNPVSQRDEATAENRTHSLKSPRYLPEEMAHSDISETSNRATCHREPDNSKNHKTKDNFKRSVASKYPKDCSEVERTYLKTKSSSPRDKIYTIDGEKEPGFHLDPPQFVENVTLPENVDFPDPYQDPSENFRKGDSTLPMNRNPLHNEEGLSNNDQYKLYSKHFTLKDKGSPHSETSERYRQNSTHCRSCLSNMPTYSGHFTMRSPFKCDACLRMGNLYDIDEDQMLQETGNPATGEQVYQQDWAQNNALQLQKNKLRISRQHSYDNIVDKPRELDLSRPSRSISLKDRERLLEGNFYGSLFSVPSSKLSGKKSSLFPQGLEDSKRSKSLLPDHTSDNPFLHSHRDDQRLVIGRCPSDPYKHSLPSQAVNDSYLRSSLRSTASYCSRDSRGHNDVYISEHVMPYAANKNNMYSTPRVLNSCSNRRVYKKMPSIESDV

[2H]C(O)(CC[C@@H](C)[C@H]1CC[C@H]2[C@@H]3CC=C4C[C@]([2H])(O)CC[C@]4(C)[C@H]3CC[C@]12C)C(C)C (stereo partly shown) [Compound 7]
GluN2A PCA IWB Ephys % potentiation at 3 μM: C (“C” indicates potentiation of >150% to 225%)
